Laboratory results published in ChEMBL document CHEMBL5154737, “Semisynthesis and biological evaluation of (+)-sclerotiorin derivatives as antitumor agents for the treatment of hepatocellular carcinoma” (Eur J Med Chem, 2022).
Active and inactive are the calls of the source. The rule behind the calls is not given here.

Columns and labels:
[1] = system: Bel-7402; experiment: Induction of apoptosis in human Bel-7402 cells assessed as late apoptotic cells at 0.313 uM incubated for 24 hrs by Annexin V and dead cell assay kit (reference value: 4.45 %); format: functional
[2] = system: Bel-7402; experiment: Upregulation of total protein ubiquitination level in human Bel-7402 cells at 2.5 uM by Western blot analysis; format: functional, cell-based; details: time <= 12.0 hrs, TDE = time-dependent effect
[3] = Drug uptake in tumor of mouse bearing tumor measured after 24 hr by ICG dye based fluorescence imaging; format: ADME, tissue-based, Neoplasm; details: in vivo
[4] = Toxicity in ICR mouse assessed as change in monocyte count at 100 mg/kg, ip qd (reference value: 0.1 10^9/L); format: organism-based; details: in vivo
[5] = system: Bel-7402; experiment: Induction of apoptosis in human Bel-7402 cells assessed as early apoptotic cells at 1.25 uM incubated for 24 hrs by Annexin V and dead cell assay kit (reference value: 3.75 %); format: functional
[6] = system: Bel-7402; experiment: Induction of apoptosis in human Bel-7402 cells assessed as viable cells at 2.5 uM incubated for 24 hrs by Annexin V and dead cell assay kit (reference value: 91.00%); format: functional; details: read-out: Activity
[7] = system: Bel-7402; experiment: Effect on ERK signalling pathway in human Bel-7402 cells assessed as increase in phosphorylated-ERK level upto 2.5 uM incubated for 24 hrs by Western blot analysis; format: functional, cell-based
[8] = Toxicity in ICR mouse assessed as change in red blood cell specific volume at 100 mg/kg, ip qd (reference value: 36.1 %); format: organism-based; details: in vivo
[9] = Biodistribution in kidney of mouse bearing tumor measured after 24 hr by ICG dye based fluorescence imaging; format: ADME, organism-based; details: in vivo
[10] = Toxicity in ICR mouse assessed as change in neutrophile granulocytes level at 100 mg/kg, ip qd (reference value: 0.9 10^9/L); format: organism-based; details: in vivo
[11] = Toxicity in ICR mouse assessed as change in mean corpuscular hemoglobin concentration at 100 mg/kg, ip qd (reference value: 343 g/L); format: organism-based; details: in vivo
[12] = Toxicity in ICR mouse assessed as change in platelet distribution width at 100 mg/kg, ip qd (reference value: 16.7); format: organism-based; details: in vivo
[13] = system: Bel-7402; experiment: Induction of apoptosis in human Bel-7402 cells assessed as dead cells at 1.25 uM incubated for 24 hrs by Annexin V and dead cell assay kit (reference value: 0.80 %); format: functional
[14] = system: Bel-7402; experiment: Cytotoxicity against human Bel-7402 cells assessed as LDH release at 2.5 uM incubated for 24 hrs by LDH assay; format: functional, cell-based
[15] = Toxicity in BALB/c nude mouse xenografted with Bel-7402 cells assessed as change in body weight at 20 mg/kg, ip qd measured every 2 days for 14 days; format: organism-based; details: in vivo, 336 h, time 14 day
[16] = system: Bel-7402; experiment: Induction of apoptosis in human Bel-7402 cells assessed as necrotic cells at 2.5 uM incubated for 24 hrs by Annexin V and Dead cell kit assay (reference value: 1.6 %); format: functional
[17] = system: Bel-7402; experiment: Induction of apoptosis in human Bel-7402 cells assessed as viable cells at 0.313 uM incubated for 24 hrs by Annexin V and dead cell assay kit (reference value: 91.00%); format: functional; details: read-out: Activity
[18] = system: Bel-7402; experiment: Induction of apoptosis in human Bel-7402 cells assessed as early apoptotic cells at 2.5 uM incubated for 24 hrs in presence of U0126 by Annexin V and Dead cell kit assay (reference value: 3.7 %); format: functional
[19] = Chronic toxicity in ICR mouse assessed as effect on lung morphology at 100 mg/kg, ip qd measured after 26 days by H and E staining method; format: organism-based; details: in vivo, 624 h, time 26 day
[20] = system: Bel-7402; experiment: Induction of apoptosis in human Bel-7402 cells assessed as dead cells at 2.5 uM incubated for 24 hrs by Annexin V and dead cell assay kit (reference value: 0.80 %); format: functional
[21] = Drug elimination in mouse bearing tumor measured after 24 hr by ICG dye based fluorescence imaging; format: ADME; details: in vivo
[22] = system: ECa-109 cell line; experiment: Cytotoxicity against human Eca-109 cells assessed as reduction in cell viability incubated for 72 hrs by MTT assay; format: functional, cell-based; details: ECa-109, 72 h
[23] = system: Bel-7402; experiment: Induction of apoptosis in human Bel-7402 cells assessed as dead cells at 0.625 uM incubated for 24 hrs by Annexin V and dead cell assay kit (reference value: 0.80 %); format: functional
[24] = Cytotoxicity against human Biu-87 cells assessed as reduction in cell viability incubated for 72 hrs by MTT assay; format: functional, cell-based; details: BIU87, 72 h
[25] = AUC (0 to t) in Sprague-Dawley rat at 20 mg/kg, ip measured for 0.03 to 24 hrs by UPLC-MS analysis; format: ADME, organism-based; design: time lower 0.03 hrs, dose 20 mg/kg, time upper 24 hrs, route ip; details: in vivo
[26] = Biodistribution in lung of mouse bearing tumor measured after 24 hr by ICG dye based fluorescence imaging; format: ADME, organism-based; details: in vivo
[27] = system: Bel-7402; experiment: Induction of apoptosis in human Bel-7402 cells assessed as early apoptotic cells at 0.625 uM incubated for 24 hrs by Annexin V and dead cell assay kit (reference value: 3.75 %); format: functional
[28] = system: Bel-7402; experiment: Induction of apoptosis in human Bel-7402 cells assessed as late apoptotic cells at 2.5 uM incubated for 24 hrs by Annexin V and dead cell assay kit (reference value: 4.45 %); format: functional
[29] = Chronic toxicity in ICR mouse assessed as effect on heart morphology at 100 mg/kg, ip qd measured after 26 days by H and E staining method; format: organism-based; details: in vivo, 624 h, time 26 day
[30] = Toxicity in ICR mouse assessed as change in red blood cell volume distribution width at 100 mg/kg, ip qd (reference value: 16.6 %); format: organism-based; details: in vivo
[31] = Biodistribution in whole body of mouse bearing tumor measured after 1 hr by ICG dye based fluorescence imaging; format: ADME, organism-based; details: in vivo
[32] = Toxicity in ICR mouse assessed as change in mean platelet volume at 100 mg/kg, ip qd (reference value: 5.6 fL); format: organism-based; details: in vivo
[33] = system: Bel-7402; experiment: Induction of apoptosis in human Bel-7402 cells assessed as increase in cleaved caspase-9 upto 2.5 uM incubated for 24 hrs by Western blot analysis; format: functional, cell-based
[34] = system: Bel-7402; experiment: Induction of apoptosis in human Bel-7402 cells assessed as dead cells at 5 uM incubated for 24 hrs by Annexin V and dead cell assay kit (reference value: 0.80 %); format: functional
[35] = system: Bel-7402; experiment: Induction of apoptosis in human Bel-7402 cells assessed as viable cells at 2.5 uM incubated for 24 hrs by Annexin V and Dead cell kit assay (reference value: 90.82 %); format: functional; details: read-out: Activity
[36] = Acute toxicity in ICR mouse assessed as change in amount of food intake at 100 to 500 mg/kg, ip; format: organism-based; details: in vivo, dose 100-500 mg/kg
[37] = system: Bel-7402; experiment: Antitumor activity against human Bel-7402 cells xenografted in BALB/c nude mouse assessed as tumor growth inhibition at 10 mg/kg, ip bid measured every 2 days for 14 days relative to control; format: functional; details: Bel-7402, 336 h, time 14 day, read-out: TGI
[38] = system: Bel-7402; experiment: Inhibition of cell proliferation in human Bel-7402 cells assessed as inhibition of colony formation incubated for 10 days by crystal violet based plate clone formation assay; format: functional; details: dose <= 2.0 µM, time 10.0 day, DDE = dose-dependent effect

In the case of `CC[C@H](C)/C=C(C)/C=C/C1=CC2=C(Cl)C(=O)[C@](C)(O)C(=O)C2=CN1Cc1ccc(OC(F)(F)F)cc1`, the Activity [1] is reported as 1.6%, the Activity [2] is reported as “Tde” and the Drug uptake [3] is reported as “Active”. The Activity [4] was 0.3 10^9/L, the Activity [5] was 5.1% and the viability at 2.5 µM [6] was 44.9%. For the same compound, the Activity [7] was “Active”, the Activity [8] was 46% and the Activity [9] was “Active”. For the same compound, the Activity [10] was 1.4 10^9/L, the Activity [11] was 306 g/L and the Activity [12] was 18.3. The Activity [13] was 0.75%, the Activity [14] was “Active” and the Activity [15] was “Non-Toxic”. It also gave an Activity [16] of 11.15%, a viability at 0.313 µM [17] of 94.3% and an Activity [18] of 26.1%. The Activity [19] was “Non-Toxic”, the Activity [20] was 3.35% and the Drug excretion [21] was “Metabolite_Detected”. The IC50 [22] was 1.16 µM, the Activity [23] was 0.6% and the IC50 [24] was 2.76 µM. The AUC(0-t) [25] was 29700 ng·h/mL, the Activity [26] was “Active” and the Activity [27] was 4.7%. The Activity [28] was 35.25%, the Activity [29] was “Non-Toxic” and the Activity [30] was 13.5%. For the same compound, the Activity [31] was “Active”, the Activity [32] was 6.7 fL and the Activity [33] was “Active”. For the same compound, the Activity [34] was 8.15%, the viability at 2.5 µM [35] was 25.1% and the Activity [36] was “Non-Toxic”. The inhibition in vivo at 10 mg/kg [37] was 34.6% and the Activity [38] was “Dde”.
